{"source": "PubChem BioAssay (NCI)", "experiment_in_all_cases": "NCI-60 cell line screen, 48 h", "key": {"[1]": {"tested_on": "HOP-62 NSCLC"}, "[2]": {"tested_on": "SN12C renal"}, "[3]": {"tested_on": "MDA-MB-231 breast"}, "[4]": {"tested_on": "CCRF-CEM leukemia"}, "[5]": {"tested_on": "SK-MEL-28 melanoma"}, "[6]": {"tested_on": "SNB-19 CNS"}, "[7]": {"tested_on": "NCI-H460 lung"}, "[8]": {"tested_on": "PC-3 prostate"}, "[9]": {"tested_on": "HCT-15 colon"}, "[10]": {"tested_on": "LOX IMVI melanoma"}}, "note": "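Values below derive from 48-hour exposures of cells grown in 96-well plates, with endpoints linearly interpolated between the two concentrations bracketing the appropriate inhibition level. At the GI50, growth is halved. At the TGI there is no net growth.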"}
{"compound": "Fc1ccc2[nH]cc(-c3nonc3-c3c[nH]c4ccc(Br)cc34)c2c1", "values": [{"measurement": "GI50", "setting": "[1]", "value": 1.89, "unit": "µM"}, {"measurement": "TGI", "setting": "[1]", "value": 5.07, "unit": "µM"}, {"measurement": "GI50", "setting": "[2]", "value": 3.13, "unit": "µM"}, {"measurement": "TGI", "setting": "[2]", "value": 12.5, "unit": "µM"}, {"measurement": "GI50", "setting": "[3]", "value": 1.3, "unit": "µM"}, {"measurement": "TGI", "setting": "[3]", "value": 2.88, "unit": "µM"}, {"measurement": "GI50", "setting": "[4]", "value": 3.07, "unit": "µM"}, {"measurement": "TGI", "setting": "[4]", "value": 14.9, "unit": "µM"}, {"measurement": "GI50", "setting": "[5]", "value": 2.86, "unit": "µM"}, {"measurement": "TGI", "setting": "[5]", "value": 8.15, "unit": "µM"}, {"measurement": "GI50", "setting": "[6]", "value": 2.25, "unit": "µM"}, {"measurement": "TGI", "setting": "[6]", "value": 5.69, "unit": "µM"}, {"measurement": "GI50", "setting": "[7]", "value": 2.07, "unit": "µM"}, {"measurement": "TGI", "setting": "[7]", "value": 4.88, "unit": "µM"}, {"measurement": "GI50", "setting": "[8]", "value": 2.05, "unit": "µM"}, {"measurement": "TGI", "setting": "[8]", "value": 7.68, "unit": "µM"}, {"measurement": "GI50", "setting": "[9]", "value": 1.64, "unit": "µM"}, {"measurement": "TGI", "setting": "[9]", "value": 3.29, "unit": "µM"}]}
{"compound": "c1cc(N(CCn2cccn2)CCn2cccn2)cc(N(CCn2cccn2)CCn2cccn2)c1", "values": [{"measurement": "TGI", "setting": "[1]", "value": "> 100", "unit": "µM"}, {"measurement": "TGI", "setting": "[10]", "value": "> 100", "unit": "µM"}, {"measurement": "TGI", "setting": "[2]", "value": "> 100", "unit": "µM"}, {"measurement": "TGI", "setting": "[4]", "value": "> 100", "unit": "µM"}, {"measurement": "TGI", "setting": "[5]", "value": "> 100", "unit": "µM"}, {"measurement": "TGI", "setting": "[6]", "value": "> 100", "unit": "µM"}, {"measurement": "TGI", "setting": "[7]", "value": "> 100", "unit": "µM"}, {"measurement": "TGI", "setting": "[9]", "value": "> 100", "unit": "µM"}]}
{"compound": "COC(=O)N(C(=O)OC)C(C(=O)O)C(C)C", "note": "(configuration not stated)", "values": [{"measurement": "TGI", "setting": "[1]", "value": "> 100", "unit": "µM"}, {"measurement": "TGI", "setting": "[10]", "value": "> 100", "unit": "µM"}, {"measurement": "TGI", "setting": "[2]", "value": "> 100", "unit": "µM"}, {"measurement": "TGI", "setting": "[5]", "value": "> 100", "unit": "µM"}, {"measurement": "TGI", "setting": "[6]", "value": "> 100", "unit": "µM"}, {"measurement": "TGI", "setting": "[7]", "value": "> 100", "unit": "µM"}]}
{"compound": "Cc1[nH]c2ccccc2c1C(=O)CC1(O)C(=O)Nc2ccccc21", "note": "(configuration not stated)", "values": [{"measurement": "TGI", "setting": "[1]", "value": "> 100", "unit": "µM"}, {"measurement": "TGI", "setting": "[10]", "value": "> 100", "unit": "µM"}, {"measurement": "TGI", "setting": "[2]", "value": "> 100", "unit": "µM"}, {"measurement": "TGI", "setting": "[4]", "value": "> 100", "unit": "µM"}, {"measurement": "TGI", "setting": "[5]", "value": "> 100", "unit": "µM"}, {"measurement": "TGI", "setting": "[6]", "value": "> 100", "unit": "µM"}, {"measurement": "TGI", "setting": "[7]", "value": "> 100", "unit": "µM"}, {"measurement": "TGI", "setting": "[9]", "value": "> 100", "unit": "µM"}]}
{"compound": "C=C(COC(C)=O)CC(OC(C)=O)c1ccccc1", "note": "(configuration not stated)", "values": [{"measurement": "TGI", "setting": "[1]", "value": "> 100", "unit": "µM"}, {"measurement": "TGI", "setting": "[10]", "value": "> 100", "unit": "µM"}, {"measurement": "TGI", "setting": "[2]", "value": "> 100", "unit": "µM"}, {"measurement": "TGI", "setting": "[4]", "value": "> 100", "unit": "µM"}, {"measurement": "TGI", "setting": "[5]", "value": "> 100", "unit": "µM"}, {"measurement": "TGI", "setting": "[6]", "value": "> 100", "unit": "µM"}, {"measurement": "TGI", "setting": "[7]", "value": "> 100", "unit": "µM"}, {"measurement": "TGI", "setting": "[9]", "value": "> 100", "unit": "µM"}]}
{"compound": "CCC[CH2][Sn]1([CH2]CCC)[O]CC(Cc2ccccc2)[O]1", "note": "(configuration not stated)", "values": [{"measurement": "GI50", "setting": "[1]", "value": 4.04, "unit": "µM"}, {"measurement": "TGI", "setting": "[1]", "value": 19.4, "unit": "µM"}, {"measurement": "GI50", "setting": "[10]", "value": 1.68, "unit": "µM"}, {"measurement": "TGI", "setting": "[10]", "value": 3.63, "unit": "µM"}, {"measurement": "GI50", "setting": "[2]", "value": 3.5, "unit": "µM"}, {"measurement": "TGI", "setting": "[2]", "value": 11.7, "unit": "µM"}, {"measurement": "GI50", "setting": "[4]", "value": 1.22, "unit": "µM"}, {"measurement": "TGI", "setting": "[4]", "value": 4.57, "unit": "µM"}, {"measurement": "GI50", "setting": "[5]", "value": 1.58, "unit": "µM"}, {"measurement": "TGI", "setting": "[5]", "value": 5.24, "unit": "µM"}, {"measurement": "GI50", "setting": "[6]", "value": 3.45, "unit": "µM"}, {"measurement": "TGI", "setting": "[6]", "value": 11.7, "unit": "µM"}, {"measurement": "GI50", "setting": "[7]", "value": 11, "unit": "µM"}, {"measurement": "TGI", "setting": "[7]", "value": 23.4, "unit": "µM"}, {"measurement": "GI50", "setting": "[9]", "value": 2.24, "unit": "µM"}, {"measurement": "TGI", "setting": "[9]", "value": 5.82, "unit": "µM"}]}
{"compound": "Cc1nc(Nc2ccc(Cl)cc2)sc1C(=O)NNc1ccc([N+](=O)[O-])cc1[N+](=O)[O-]", "values": [{"measurement": "TGI", "setting": "[1]", "value": 25.2, "unit": "µM"}, {"measurement": "TGI", "setting": "[10]", "value": 35.7, "unit": "µM"}, {"measurement": "TGI", "setting": "[2]", "value": 36.2, "unit": "µM"}, {"measurement": "TGI", "setting": "[4]", "value": 52.3, "unit": "µM"}, {"measurement": "TGI", "setting": "[5]", "value": 34.1, "unit": "µM"}, {"measurement": "TGI", "setting": "[6]", "value": 30.4, "unit": "µM"}, {"measurement": "TGI", "setting": "[7]", "value": 34.7, "unit": "µM"}]}
{"compound": "Cc1ccc(NC(=O)C2C(=O)N(c3ccc(C)cc3)C(=O)/C2=N\\NC(N)=S)cc1", "note": "(configuration not stated)", "values": [{"measurement": "TGI", "setting": "[1]", "value": "> 100", "unit": "µM"}, {"measurement": "TGI", "setting": "[10]", "value": "> 100", "unit": "µM"}, {"measurement": "TGI", "setting": "[2]", "value": "> 100", "unit": "µM"}, {"measurement": "TGI", "setting": "[5]", "value": "> 100", "unit": "µM"}, {"measurement": "TGI", "setting": "[6]", "value": "> 100", "unit": "µM"}, {"measurement": "TGI", "setting": "[7]", "value": "> 100", "unit": "µM"}, {"measurement": "TGI", "setting": "[9]", "value": "> 100", "unit": "µM"}]}
{"compound": "CCC[CH2][Sn]([CH2]CCC)([CH2]CCC)[O]c1ccc(Cl)cc1Cl", "values": [{"measurement": "GI50", "setting": "[1]", "value": 0.146, "unit": "µM"}, {"measurement": "TGI", "setting": "[1]", "value": 0.294, "unit": "µM"}, {"measurement": "GI50", "setting": "[10]", "value": 0.111, "unit": "µM"}, {"measurement": "TGI", "setting": "[10]", "value": 0.253, "unit": "µM"}, {"measurement": "GI50", "setting": "[2]", "value": 0.142, "unit": "µM"}, {"measurement": "TGI", "setting": "[2]", "value": 0.303, "unit": "µM"}, {"measurement": "GI50", "setting": "[3]", "value": 0.122, "unit": "µM"}, {"measurement": "TGI", "setting": "[3]", "value": 0.284, "unit": "µM"}, {"measurement": "GI50", "setting": "[5]", "value": 0.162, "unit": "µM"}, {"measurement": "TGI", "setting": "[5]", "value": 0.302, "unit": "µM"}, {"measurement": "GI50", "setting": "[6]", "value": 0.175, "unit": "µM"}, {"measurement": "TGI", "setting": "[6]", "value": 0.344, "unit": "µM"}, {"measurement": "GI50", "setting": "[7]", "value": 0.0977, "unit": "µM"}, {"measurement": "TGI", "setting": "[7]", "value": 0.25, "unit": "µM"}, {"measurement": "GI50", "setting": "[8]", "value": 0.15, "unit": "µM"}, {"measurement": "TGI", "setting": "[8]", "value": 0.443, "unit": "µM"}, {"measurement": "GI50", "setting": "[9]", "value": 0.156, "unit": "µM"}, {"measurement": "TGI", "setting": "[9]", "value": 0.333, "unit": "µM"}]}
{"compound": "Cc1cc2c(ccc3c(C)cc(=O)oc32)o1", "values": [{"measurement": "TGI", "setting": "[1]", "value": "> 100", "unit": "µM"}, {"measurement": "TGI", "setting": "[10]", "value": "> 100", "unit": "µM"}, {"measurement": "TGI", "setting": "[2]", "value": "> 100", "unit": "µM"}, {"measurement": "TGI", "setting": "[4]", "value": "> 100", "unit": "µM"}, {"measurement": "TGI", "setting": "[5]", "value": "> 100", "unit": "µM"}, {"measurement": "TGI", "setting": "[6]", "value": "> 100", "unit": "µM"}, {"measurement": "TGI", "setting": "[7]", "value": "> 100", "unit": "µM"}, {"measurement": "TGI", "setting": "[9]", "value": "> 100", "unit": "µM"}]}
{"compound": "CN(C)CC(C)(C)/C(=N\\Nc1ccccc1)c1ccccc1", "values": [{"measurement": "TGI", "setting": "[1]", "value": "> 100", "unit": "µM"}, {"measurement": "TGI", "setting": "[10]", "value": 37.6, "unit": "µM"}, {"measurement": "TGI", "setting": "[2]", "value": "> 100", "unit": "µM"}, {"measurement": "TGI", "setting": "[4]", "value": "> 100", "unit": "µM"}, {"measurement": "TGI", "setting": "[5]", "value": "> 100", "unit": "µM"}, {"measurement": "TGI", "setting": "[6]", "value": "> 100", "unit": "µM"}, {"measurement": "TGI", "setting": "[7]", "value": "> 100", "unit": "µM"}, {"measurement": "TGI", "setting": "[9]", "value": 53.8, "unit": "µM"}]}
